{"source": "patent US9085605B2", "about": "“Chemical synthesis and anti-tumor and anti-metastatic effects of dual functional conjugate” (Shenzhen Salubris Pharmaceuticals Co., Ltd., priority 2010, dated 2015)", "test_system": "human breast cancer line MDA-MB-231", "assay": "Tumor growth inhibition in nude mice xenograft model, MDA-MB-231", "method": "• 1. […] Drug administration dose were set as: 10 mg/kg, 15 mg/kg, and 20 mk/kg, drug administration volume was 0.2 mL/20 g. • 2. […] MDA [Peptide (P) 0.54 mg/mL (0.001M), Example 10], a colorless and clear liquid, was prepared by the commission, can be directly used after the repackaging in a sterile condition, stored at 4° C. […] Certificate NO. […] SYSK (BeiJing) 2004-0001. Experiment Methods:\nThe mice were divided into groups and administrated drug after 11 days.\nThe mice were divided into eight groups, each group had 6-8 mice. The groups contained Negative control. […] After grouping, all mice were administrated with drug by intraperitoneal injection once a day depends on their body weight.\nOther groups were administered with drugs for 24 times successively. The experiment was completed 24 h after the last administration.\nThe mice were sacrificed, and tumors were isolated and their weight was measured, and the inhibition rate of tumor growth by drugs were calculated. […] Calculation methods and formula were omitted.", "key": {"[1]": {"settings": "30 mg/kg × 12, i.p. once a day, then withdrawn, larger starting tumors"}}, "note": "Where “and” joins values, the source holds several entries; their conditions need not be identical. Equal entries are not always repeated."}
{"smiles": "CC(=O)O[C@H]1C(=O)[C@@]2(C)[C@H]([C@H](OC(=O)c3ccccc3)[C@]3(O)C[C@H](OC(=O)[C@H](OC(=O)CCC(=O)NCCCCC(NC(=O)CC[C@H](NC(=O)C(C)NC(=O)/C=C/c4ccc(Cl)cc4)C(N)=O)C(N)=O)[C@@H](NC(=O)c4ccccc4)c4ccccc4)C(C)=C1C3(C)C)[C@]1(OC(C)=O)CO[C@@H]1C[C@@H]2O", "note": "(some centres unmarked) [MTC-220]", "values": [{"measurement": "Body weight Beginning", "setting": "10 mg/kg × 24, i.p. once a day", "value": "17.4 ± 1.47", "unit": "g"}, {"measurement": "Body weight End", "setting": "10 mg/kg × 24, i.p. once a day", "value": "20.6 ± 1.64", "unit": "g"}, {"measurement": "RTV", "setting": "10 mg/kg × 24, i.p. once a day", "value": "12.62 ± 5.924"}, {"measurement": "T/C", "setting": "10 mg/kg × 24, i.p. once a day", "value": 70.0, "unit": "%"}, {"measurement": "TGI", "setting": "10 mg/kg × 24, i.p. once a day", "value": 37.3, "unit": "%"}, {"measurement": "Tumor volume Beginning", "setting": "10 mg/kg × 24, i.p. once a day", "value": "135 ± 70.6", "unit": "mm^3"}, {"measurement": "Tumor volume End", "setting": "10 mg/kg × 24, i.p. once a day", "value": "1655 ± 929.4", "unit": "mm^3"}, {"measurement": "Tumor weight", "setting": "10 mg/kg × 24, i.p. once a day", "value": "1.78 ± 1.016", "unit": "g"}, {"measurement": "Body weight increase compared to the beginning of the grouping", "setting": "15 mg/kg × 24, end of the experiment", "value": 2.7, "unit": "g"}, {"measurement": "Body weight Beginning", "setting": "15 mg/kg × 24, i.p. once a day", "value": "17.9 ± 0.88", "unit": "g"}, {"measurement": "Body weight End", "setting": "15 mg/kg × 24, i.p. once a day", "value": "20.6 ± 0.91", "unit": "g"}, {"measurement": "RTV", "setting": "15 mg/kg × 24, i.p. once a day", "value": "7.12 ± 4.064"}, {"measurement": "T/C", "setting": "15 mg/kg × 24, i.p. once a day", "value": "39.5% and 37.5% and 39.49%"}, {"measurement": "TGI", "setting": "15 mg/kg × 24, i.p. once a day", "value": 57.4, "unit": "%"}, {"measurement": "Tumor volume Beginning", "setting": "15 mg/kg × 24, i.p. once a day", "value": "148 ± 80.5", "unit": "mm^3"}, {"measurement": "Tumor volume End", "setting": "15 mg/kg × 24, i.p. once a day", "value": "967 ± 590.4", "unit": "mm^3"}, {"measurement": "Tumor weight", "setting": "15 mg/kg × 24, i.p. once a day", "value": "1.21 ± 0.813", "unit": "g"}, {"measurement": "Body weight increase compared to the beginning of the grouping", "setting": "20 mg/kg × 24, end of the experiment", "value": 1.9, "unit": "g"}, {"measurement": "Body weight Beginning", "setting": "20 mg/kg × 24, i.p. once a day", "value": "17.0 ± 1.11", "unit": "g"}, {"measurement": "Body weight End", "setting": "20 mg/kg × 24, i.p. once a day", "value": "18.9 ± 1.58", "unit": "g"}, {"measurement": "RTV", "setting": "20 mg/kg × 24, i.p. once a day", "value": "4.58 ± 2.456"}, {"measurement": "T/C", "setting": "20 mg/kg × 24, i.p. once a day", "value": 25.40, "unit": "%"}, {"measurement": "TGI", "setting": "20 mg/kg × 24, i.p. once a day", "value": 72.2, "unit": "%"}, {"measurement": "Tumor volume Beginning", "setting": "20 mg/kg × 24, i.p. once a day", "value": "133 ± 57.6", "unit": "mm^3"}, {"measurement": "Tumor volume End", "setting": "20 mg/kg × 24, i.p. once a day", "value": "642 ± 482.3", "unit": "mm^3"}, {"measurement": "Tumor weight", "setting": "20 mg/kg × 24, i.p. once a day", "value": "0.79 ± 0.654", "unit": "g"}, {"measurement": "Body weight increase compared to the beginning of the grouping", "setting": "30 mg/kg × 12, end of the experiment", "value": 2.6, "unit": "g"}, {"measurement": "Body weight Beginning", "setting": "[1]", "value": "17.5 ± 1.09", "unit": "g"}, {"measurement": "Body weight End", "setting": "[1]", "value": "20.1 ± 0.98", "unit": "g"}, {"measurement": "RTV", "setting": "[1]", "value": "1.11 ± 1.366"}, {"measurement": "T/C", "setting": "[1]", "value": 6.16, "unit": "%"}, {"measurement": "TGI", "setting": "[1]", "value": ">87.0", "unit": "%"}, {"measurement": "Tumor volume Beginning", "setting": "[1]", "value": "340 ± 58.4", "unit": "mm^3"}, {"measurement": "Tumor volume End", "setting": "[1]", "value": "391 ± 480.5", "unit": "mm^3"}, {"measurement": "Tumor weight", "setting": "[1]", "value": "0.37 ± 0.413", "unit": "g"}]}
